For this assay, the system named is STOP+/− mice. Nature of the assay: Object recognition and discrimination test. The assay is classed as in vivo, mouse. Here is the method:
The NAP vehicle solution (termed DD), included the following ingredients (per milliliter): 7.5 mg of NaCl, 1.7 mg of citric acid monohydrate, 3 mg of disodium phosphate dihydrate, and 0.2 mg of benzalkonium chloride solution (50%) (Alcalay R N et al., Neurosci Lett, 361(1-3): 128-131 (2004)). NAP or vehicle solution (DD) was administered to mice hand-held in a semisupine position with nostrils facing the investigator. A pipette tip was used to administer 2.5 μl/nostril. The mouse was hand-held until the solution was totally absorbed (10 s). […]
The test is based on visual discrimination between two different objects in an arena of 30 cm×40 cm. […] One hour after the daily intranasal NAP treatment, or clozapine injection, each male mouse was exposed to two identical objects for 5 minutes and the time spent sniffing/touching each object was measured (first daily session). Three hours later, the mice were exposed to one familiar and one novel object for 3 minutes and the time spent sniffing/touching each object was measured again (second session, measuring visual memory). The data was analyzed using two different methods. The first method measured the time spent exploring an object, novel or familiar, and compared the two. The second method evaluated the discrimination capacity of the mice between the novel object and the familiar object using the following formula. […]

“Also recorded” adds a separate entry of the source.

In the case of `CC[C@H](C)[C@H](NC(=O)[C@H](CO)NC(=O)[C@@H](NC(=O)[C@@H]1CCCN1C(=O)[C@H](C)NC(=O)[C@@H](N)CC(N)=O)C(C)C)C(=O)N1CCC[C@H]1C(=O)N[C@@H](CCC(N)=O)C(=O)O` [NAP], the “object recognition / discrimination of novel object” value (Example 3, STOP+/− male mice, 3 h after first session, NAP intranasal 0.5 μg/mouse/day or clozapine 10 mg/kg IP, FIG. 9) is “ameliorated completely the cognitive impairment; also recorded: significantly beneficial”. Also, the “object recognition, discrimination capacity D2 (memory scores)” value (Example 4, STOP+/− mice, NAP 0.5 microgram/mouse/day, clozapine 3 mg/kg/day, versus pooled controls, FIG. 12) is “effective to increase memory scores”.

For the origin of these results see patent publication US20120010148A1, “COMBINATION THERAPIES USING NAP” (ALLON THERAPEUTICS INC., priority 2008, published 2012).
